# Results published in article PMC6368574, “Probing the Inhibition of Microtubule Affinity Regulating Kinase 4 by N-Substituted Acridones” (Scientific Reports, 2019).
# Entries after “also recorded” stand apart in the source; their conditions may differ.
# What was measured:
# MCF-7 cells = test: ROS measurement by DCFDA staining; type: cell-based, human; conditions: IC50 dose, 5–6 h, flow cytometry
# Description: The respiratory cycle of mitochondria is the foremost source of reactive oxygen species (ROS), and ROS has the potential to induce cell apoptosis. Thus, it was speculated that the treatment with selected acridone derivatives might lead to the production of ROS. The MCF-7 cells were treated with the IC50 dose of compounds 5, 7b, 7d, 7f and 7h for 5–6 h and ROS levels were quantified by flow cytometry using 2-dichlorofluorescein diacetate (DCFDA) staining.
# Besides flow cytometry, levels of ROS were also measured by fluorescence spectroscopy, after treatment with compounds 5, 7b, 7d, 7f and 7h, DCFDA staining and imaging on a fluorescence microscope (Fig. 6D). It is easily observed in the Fig. 6D that the intensifications of green fluorescence in case of treated cells denote the higher levels of ROS.
# DCF fluorescence helps to measures innumerable ROS such as H2O2 and hydroxyl radicals. That why DCFDA staining was used to quantify the reactive oxygen species (ROS) level inside the cell as described earlier[17],[41]. Briefly, the MCF-7 cells (70–80% confluent) were incubated with IC50 concentration of each compound and positive control H2O2, respectively in a 24-well culture plates. After 5–6 h incubation of cells with respective compounds, cells were gently washed with 500 μl of prewarmed (at 37 °C) Krebs Ringer buffer (20 mM HEPES, 2 mM MgSO4, 10 mM dextrose, 127 mM NaCl, 1 mM CaCl2 and 5.5 mM KCl), subsequently 10 µM DCFDA (Invitrogen Grand Island, NY) has been added to each well and incubated further for 30 min in dark at 37 °C in a humidified CO2 incubator. After 30 min incubation, the cells were collected by trypsinization and ROS levels were quantified with the help of Flow Cytometry. Nearly 10,000 events for each sample were collected on BD LSR II Flow Cytometry Analyzer, and analyzed with help of FlowJo. For intact cell imaging, cells were washed with PBS, pH 7.4 and imaged for ROS levels estimation using the DCFDA fluorescent dye. Fluorescence images were taken on Nikon-EclipseTS100 microscope.
# [1] = test system: panel of kinases of CAMK family; test: Single dose kinase inhibition profiling (ADP-Glo); type: biochemical; conditions: single dose of 10 µM
# Excerpt: The selectivity of kinase inhibitors is commonly evaluating them against a panel of closely related kinases based on the hypothesis that off-target interfaces are more likely to be associated with same/different families of kinases with similar amino acid sequence. So, we evaluated the fraction of kinase targets that are within the same kinase family (CAMK family). […] These kinase selectivity results signify the use of these compounds as potential and selective inhibitors towards MARK4.
# Figure 7 Kinase selectivity and tau-phosphorylation assay. Kinase selectivity results of (A) compound 7b, (B) compound 7d, (C) compound 7f. The selected panel of kinases was incubated with 10 µM dose of selected compounds and analyzed for percent activity values. The percent kinase activity was calculated in the compound-containing reactions and plotted in terms of percent kinase activity inhibition. (D) Representative flow cytometry histogram of SH-SY5Y cell fractions stained with phosphorylated anti-tau antibodies, each histogram represents the phosphorylation status of tau under different treatments as mentioned in inset.
# In vitro profiling of the twenty five members of CAMK family (CAMK-1 and CAMK-2) of kinases was performed with the help of kinase screening kit by following the manufacturer’s protocols (Promega, Madison, USA). Briefly, add desired concentration of each compound (10 µM) to corresponding well of 384-well assay plate. Consecutively, 2 µl of kinase working stock solution was added to each wells of assay plate. Gently mix the reaction mixture on a plate shaker for 2 minutes, centrifuge the assay plate to bring mixture of reagents to the bottom of the wells. Incubate the plate at room temperature (25 °C) for 10 minutes. […] After the completion of reaction, measure the luminescence using an integration time of 0.5 seconds per well. Using net luminescence of the no-compound control (negative control) reactions to represent 100% kinase activity, the percent kinase activity was calculated in the compound-containing reactions and plotted in terms of percent kinase activity inhibition.
# [2] = test system: phosphorylation of tau protein in SH-SY5Y cells; test: Tau-phosphorylation assay by flow cytometry; type: cell-based, human; conditions: IC50 dose, 24 h
# Excerpt: To see the effect of most potential lead molecules (compound 7b, 7d and 7f) on the substrate protein (tau protein) of MARK4 enzyme inhibition activity studies are extended to a cell-based tau-phosphorylation assay. Cells were allowed to grow in the presence of IC50 dose of compound 7b, 7d and 7f for 24 hrs. Following the treatment, the phosphorylation of tau has been assessed with the help of flow cytometry.
# To study the effect of selected lead molecules on the phosphorylation of tau protein (a substrate of MARK4) the SH-SY5Y cells were treated with IC50 dose of compound 7b, 7d and 7 f for 24 h and subjected to FACS based analysis as per our previously published protocols[17],[50].
Structure (SMILES),ROS levels (MCF-7 cells),within-family kinase selectivity [1],phosphorylation level of tau protein [2]
"Cc1ccc2c(c1)c(=O)c1ccccc1n2CC(=O)NCc1ccccc1 [Compound 7b, N-benzyl-2-(2-methyl-9-oxoacridin-10(9H)-yl)acetamide]",increases the production of ROS; also recorded: induce ROS to a higher extent than compound 5 and 7h,more strongly inhibits MARK4 as compared to other kinases of same family,decreases the phosphorylation level of tau protein
"COc1ccc(CNC(=O)Cn2c3ccccc3c(=O)c3cc(C)ccc32)cc1 [Compound 7d, N-(4-methoxybenzyl)-2-(2-methyl-9-oxoacridin-10(9H)-yl)acetamide]",increases the production of ROS; also recorded: induce ROS to a higher extent than compound 5 and 7h,more strongly inhibits MARK4 as compared to other kinases of same family,decreases the phosphorylation level of tau protein
"Cc1ccc(NC(=O)Cn2c3ccccc3c(=O)c3cc(C)ccc32)cc1 [Compound 7f, 2-(2-Methyl-9-oxoacridin-10(9H)-yl)-N-(p-tolyl)acetamide]",increases the production of ROS; also recorded: induce ROS to a higher extent than compound 5 and 7h,more strongly inhibits MARK4 as compared to other kinases of same family,decreases the phosphorylation level of tau protein
"COC(=O)Cn1c2ccccc2c(=O)c2cc(C)ccc21 [Compound 5, Methyl 2-(2-methyl-9-oxoacridin-10(9H)-yl)acetate]",increases the production of ROS,–,–
"COc1ccccc1NC(=O)Cn1c2ccccc2c(=O)c2cc(C)ccc21 [Compound 7h, N-(2-methoxyphenyl)-2-(2-methyl-9-oxoacridin-10(9H)-yl)acetamide]",increases the production of ROS,–,–
